# Assay results reported in patent US20250109127A1, “METHODS OF USE OF PHENOXYPROPYLAMINE COMPOUNDS TO TREAT DEPRESSION” (Minerva Neurosciences, Inc., priority 2013, published 2025).
# Several values for one entry are separate records, joined by “and”; a condition that tells them apart may be missing. Identical values can stand only once. Counter-ions that a name gives are not always drawn.
# Tested on: dopamine release in the rat prefrontal cortex
# Assay: Microdialysis: dopamine release in prefrontal cortex after I.P. administration
# Format: in vivo
# Conditions: for DOPAMINE (% of respective basal), individual animal: 0.1 mg/kg I.P., c2-c9 = R#13,14,20,19,25,26,31,32; for DOPAMINE (% of respective basal), individual animal / Dopamine release, individual animals: hydrochloride; for Dopamine release, MEAN / Dopamine release, individual animals: 0.3 mg/kg I.P.; for Dopamine release, MEAN: n = 8; for Dopamine release, individual animals: one column per animal R#11,12,18,23,29,30,17,24
# Procedure: The aim of the study was to evaluate, using microdialysis, the effects of an intraperitoneal (I.P.) administration in rats of three different doses of SON-117 on dopamine and its metabolites, serotonin and its metabolite (5-HIAA), and norepinephrine levels in prefrontal cortex.
# Thirty-two adult male Wistar rats were used for the whole study (4 groups of eight animals planned for the study, Table 1).
# Surgery was performed on rats weighing about 300 g at the beginning of the experiments. Rats were anaesthetized with Ketamine (50 mg/kg) & Xylazine (15 mg/kg) by intramuscular administration. The animals were placed in a stereotaxic apparatus in the flat-skull position at a constant setting of −3.3 mm between ear bars and the incisor bar. The animals were treated with a local anesthesic (xylocaine 1%, Astra Zeneca) and an analgesic (Temgesic, from Schering Plough, 0.05 mg/kg, s.c.). A rostrocaudal midline incision was made with a lancet to expose the dorsal skull surface. The “stereotaxic zero” was defined by the Bregma in accordance with Paxinos and Watson's atlas (1986). A hole was drilled in the skull with a drill and the meninges were pierced with a sterile needle to implant a CMA12 guide cannula which later received the dialysis probe.
# Coordinates used for implanting guide cannula in prefrontal cortex from Bregma were anteroposterior 3.7 mm, mediolateral 0.8 mm, and dorsoventral −2 mm (top of the probe was at −5 mm). The guide cannula was fixed to the skull with two stainless steel screws (1.88 mm outside diameter) anchored. An application of dental cement was added. A plastic collar allowed each animal to be tethered to a Swivel assembly of the CMA 120 awake animal system. Following surgery, rats were kept in individual cages and allowed to recover for a minimum of 3-5 days before the experimentation. The rats were handled and put in plastic bowl for 10 min at least every day to habituate the animals to their new environment for the dialysis. An I.P. administration with saline was also performed every day.
# Dialysis probes (CMA12/3 mm, membrane, 20 kD cut-off, Carnegie Medicine, Stockholm, Sweden), were carefully washed before inserting into the guide cannula. The wash was performed with the artificial cerebrospinal fluid (aCSF) medium (NaCl 147 mM, KCl 2.7 mM, CaCl2 1.2 mM, MgCl2 0.85 mM) at room temperature. The dialysis system was then equilibrated at 20° C. at a perfusion rate of 1 μl/min with a Carnegie pump (CMA100). All catheters (FEP tubing, internal volume of 1.2 μl/10 cm, and tubing adaptors) used for microdialysis were treated in the same conditions.
# The probes duly prepared were inserted into the guide cannula and the CMA120 Swivel assembly secured to the animal using a plastic collar. Flow through the dialysis probe with aCSF was maintained at a rate of 1 μl/min during the whole experimentation. The first four fractions (corresponding to 2 hours) were discarded to avoid the effects of parenchymal disturbance and to ensure that an approximate steady-state level was reached. Fractions were then collected over a period of 8.5 h during which time the animals remained quiet. The dialysates were automatically collected with an autosampler (microfraction collector CMA 140, Carnegie Medicin) and stored at −80° C. until analysis. […] Perfusion was then maintained for 7 hours with aCSF. The dialysates (30 μl) were collected into 300 μl vials, transferred into dry ice and then kept frozen (−80° C.) until analysis. Frozen samples were shipped to a partner for analysis. At the end of the microdialysis study, a PBS with colored ink was perfused through the probe in order to visualize the dialyzed area.
# Catecholamine assay: Concentrations of dopamine, DOPAC, HVA, 5-HIAA, 5-HT, and norepinephrin were determined for each sample by HPLC coupled with electrochemical detection.
structure (smiles),measurement,setting,value
"Cc1nnc(-c2cc3c(OC[C@@H](O)CN4CCC(c5ccc(Cl)c(Cl)c5)CC4)cccc3o2)o1 [SON-117, (S)-1-(4-(3,4-dichlorophenyl)piperidino)-3-(2-(5-methyl-1,3,4-oxadiazol-2-yl)benzo(b)furan-4-yloxy)-2-propanol hydrochloride]","DOPAMINE (% of respective basal), individual animal",T30-T1 h,78.42 % of respective basal and 144.00 % of respective basal and 128.77 % of respective basal and 71.43 % of respective basal and 151.01 % of respective basal and 47.86 % of respective basal and 101.52 % of respective basal
same,"DOPAMINE (% of respective basal), individual animal",T1 h 30-T2 h,36.00 % of respective basal and 142.72 % of respective basal and 334.21 % of respective basal and 140.61 % of respective basal and 189.68 % of respective basal and 109.22 % of respective basal and 110.24 % of respective basal
same,"DOPAMINE (% of respective basal), individual animal",T1 h-T1 h 30,48.68 % of respective basal and 33.57 % of respective basal and 218.55 % of respective basal and 176.05 % of respective basal and 99.52 % of respective basal and 198.57 % of respective basal and 106.01 % of respective basal and 103.54 % of respective basal
same,"DOPAMINE (% of respective basal), individual animal",T2 h 30-T3 h,23.71 % of respective basal and 100.08 % of respective basal and 315.3 % of respective basal and 95.2 % of respective basal and 171.39 % of respective basal and 293.73 % of respective basal and 72.19 % of respective basal and 35.99 % of respective basal
same,"DOPAMINE (% of respective basal), individual animal",T2 h-T2 h 30,84.44 % of respective basal and 172.82 % of respective basal and 179.35 % of respective basal and 87.73 % of respective basal and 1288.95 % of respective basal and 305.56 % of respective basal and 131.13 % of respective basal and 45.72 % of respective basal
same,"DOPAMINE (% of respective basal), individual animal",T3 h 30-T4 h,23.36 % of respective basal and 145.75 % of respective basal and 464.25 % of respective basal and 43.13 % of respective basal and 194.11 % of respective basal and 295.73 % of respective basal and 45.38 % of respective basal and 34.94 % of respective basal
same,"DOPAMINE (% of respective basal), individual animal",T3 h-T3 h 30,40.16 % of respective basal and 117.963 % of respective basal and 93.88 % of respective basal and 47.74 % of respective basal and 225.34 % of respective basal and 586.07 % of respective basal and 48.38 % of respective basal and 40.61 % of respective basal
same,"DOPAMINE (% of respective basal), individual animal",T4 h 30-T5 h,196.31 % of respective basal and 152.43 % of respective basal and 409.91 % of respective basal and 45.90 % of respective basal and 293.48 % of respective basal and 662.65 % of respective basal and 73.568 % of respective basal and 92.51 % of respective basal
same,"DOPAMINE (% of respective basal), individual animal",T4 h-T4 h 30,91.54 % of respective basal and 75.24 % of respective basal and 423.55 % of respective basal and 28.53 % of respective basal and 308.40 % of respective basal and 676.86 % of respective basal and 63.428 % of respective basal and 58.94 % of respective basal
same,"DOPAMINE (% of respective basal), individual animal",T5 h 30-T6 h,107.62 % of respective basal and 109.11 % of respective basal and 218.37 % of respective basal and 42.54 % of respective basal and 135.41 % of respective basal and 709.30 % of respective basal and 42.94 % of respective basal and 140.37 % of respective basal
same,"DOPAMINE (% of respective basal), individual animal",T5 h-T5 h 30,110.75 % of respective basal and 148.81 % of respective basal and 228.76 % of respective basal and 47.98 % of respective basal and 200.12 % of respective basal and 601.17 % of respective basal and 21.81 % of respective basal and 112.11 % of respective basal
same,"DOPAMINE (% of respective basal), individual animal",T6 h 30-T7 h,78.29 % of respective basal and 188.44 % of respective basal and 933.712 % of respective basal and 63.21 % of respective basal and 1205.29 % of respective basal and 126.67 % of respective basal
same,"DOPAMINE (% of respective basal), individual animal",T6 h-T6 h 30,130.81 % of respective basal and 238.5 % of respective basal and 88.84 % of respective basal and 62.29 % of respective basal and 146.28 % of respective basal and 882.60 % of respective basal and 95.56 % of respective basal and 166.52 % of respective basal
same,"Dopamine release, MEAN",T0-T30 min,128.24 % of respective basal
same,"Dopamine release, MEAN",T30-T1 h,131.35 % of respective basal
same,"Dopamine release, individual animals",T30-T1 h,103.18 % of respective basal and 54.05 % of respective basal and 146.65 % of respective basal and 93.66 % of respective basal and 168.96 % of respective basal and 281.64 % of respective basal and 59.20 % of respective basal and 143.48 % of respective basal
same,"Dopamine release, MEAN",T1 h 30-T2 h,90.06 % of respective basal
same,"Dopamine release, individual animals",T1 h 30-T2 h,91.90 % of respective basal and 29.89 % of respective basal and 33.64 % of respective basal and 64.84 % of respective basal and 106.30 % of respective basal and 119.82 % of respective basal and 81.21 % of respective basal and 192.86 % of respective basal
same,"Dopamine release, MEAN",T1 h-T1 h 30,94.40 % of respective basal
same,"Dopamine release, individual animals",T1 h-T1 h 30,50.19 % of respective basal and 44.28 % of respective basal and 51.46 % of respective basal and 70.10 % of respective basal and 123.34 % of respective basal and 256.96 % of respective basal and 56.09 % of respective basal and 102.79 % of respective basal
same,"Dopamine release, MEAN",T2 h 30-T3 h,95.29 % of respective basal
same,"Dopamine release, individual animals",T2 h 30-T3 h,53.62 % of respective basal and 111.85 % of respective basal and 131.64 % of respective basal and 82.81 % of respective basal and 130.53 % of respective basal and 91.04 % of respective basal and 42.56 % of respective basal and 118.24 % of respective basal
same,"Dopamine release, MEAN",T2 h-T2 h 30,112.22 % of respective basal
same,"Dopamine release, individual animals",T2 h-T2 h 30,78.18 % of respective basal and 201.28 % of respective basal and 102.58 % of respective basal and 57.76 % of respective basal and 140.27 % of respective basal and 171.47 % of respective basal and 131.71 % of respective basal and 14.48 % of respective basal
same,"Dopamine release, MEAN",T3 h 30-T4 h,131.87 % of respective basal
same,"Dopamine release, individual animals",T3 h 30-T4 h,348.64 % of respective basal and 164.63 % of respective basal and 39.78 % of respective basal and 87.76 % of respective basal and 122.97 % of respective basal and 30.76 % of respective basal and 128.55 % of respective basal
same,"Dopamine release, MEAN",T3 h-T3 h 30,133.65 % of respective basal
same,"Dopamine release, individual animals",T3 h-T3 h 30,263.92 % of respective basal and 284.14 % of respective basal and 32.71 % of respective basal and 88.53 % of respective basal and 186.05 % of respective basal and 14.29 % of respective basal and 65.93 % of respective basal
same,"Dopamine release, MEAN",T4 h 30-T5 h,99.61 % of respective basal
same,"Dopamine release, individual animals",T4 h 30-T5 h,204.04 % of respective basal and 138.52 % of respective basal and 77.42 % of respective basal and 28.77 % of respective basal and 97.45 % of respective basal and 26.06 % of respective basal and 62.98 % of respective basal and 161.60 % of respective basal
same,"Dopamine release, MEAN",T4 h-T4 h 30,126.41 % of respective basal
same,"Dopamine release, individual animals",T4 h-T4 h 30,99.34 % of respective basal and 210.06 % of respective basal and 195.26 % of respective basal and 40.10 % of respective basal and 119.18 % of respective basal and 52.10 % of respective basal and 159.91 % of respective basal and 135.30 % of respective basal
same,"Dopamine release, MEAN",T5 h 30-T6 h,263.98 % of respective basal
